Measured values from patent US6506749B2, “7-oxo-pyridopyrimidines (I)” (Syntex (U.S.A.) LLC, priority 2000, dated 2003).
Structures can show the parent of a compound that is named as a salt.

Biological target: T1, p38 MAP kinase (Homo sapiens, UniProt Q16539)
T1 construct: made in house; host or cells: E. coli (co-expressed with SEK-1 and MEKK to phosphorylate p38)
Experiment: in vitro inhibition of p-38 (MAP) kinase, transfer of γ-33P from ATP to Myelin Basic Protein
Type: biochemical
Details: phosphorylated recombinant p38 MAP kinase; MBP substrate, γ-33P-ATP; 30° C.
Experimental: This example illustrate an assay protocol for determining in vitro inhibition of p-38 (MAP) Kinase.
The phosphorylated form of the recombinant p38 MAP kinase was expressed with SEK-1 and MEKK in E. Coli and then purified by affinity chromatography using a Nickel column.
The phosphorylated p38 MAP kinase was diluted in kinase buffer (20 mM 3-(N-morpholino)propanesulfonic acid, pH 7.2, 25 mM β-glycerol phosphate, 5 mM ethylene glycol-bis(beta-aminoethyl ether)-N,N,N′,N′-tetraacetic acid, 1 mM sodium vanadate, 1 mM dithiothreitol, 40 mM magnesium chloride). Test compound dissolved in DMSO or only DMSO (control) was added and the samples were incubated for 10 min at 30° C. The kinase reaction was initiated by the addition of a substrate cocktail containing MBP and γ-^33P-ATP. After incubating for an additional 20 min at 30° C., the reaction was terminated by adding 0.75% phosphoric acid. The phosphorylated MBP was then separated from the residual γ-^33P-ATP using a phosphocellulose membrane (Millipore, Bedford, Mass.) and quantitated using a scintillation counter (Packard, Meriden, Conn.).

T1 sequence (Q16539 whole entry): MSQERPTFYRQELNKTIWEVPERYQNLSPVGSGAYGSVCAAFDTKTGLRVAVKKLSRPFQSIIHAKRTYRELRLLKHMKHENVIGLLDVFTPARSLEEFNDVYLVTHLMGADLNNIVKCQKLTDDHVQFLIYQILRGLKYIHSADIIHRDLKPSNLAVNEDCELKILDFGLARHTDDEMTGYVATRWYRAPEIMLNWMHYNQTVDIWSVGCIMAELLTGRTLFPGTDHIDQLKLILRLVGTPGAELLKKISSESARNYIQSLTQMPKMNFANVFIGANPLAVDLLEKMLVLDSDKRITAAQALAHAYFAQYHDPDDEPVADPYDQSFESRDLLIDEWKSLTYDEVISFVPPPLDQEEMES

| SMILES | IC50 |
| --- | --- |
| Cn1c(=O)c(-c2ccccc2Cl)cc2cnc(N[C@H]3CC[C@H](O)CC3)nc21 [Cpd 1] | 20.5 nM |
| Cn1c(=O)c(-c2ccccc2Cl)cc2cnc(NC3(CO)CCCC3)nc21 [Cpd 2] | 41.9 nM |
| CCCS(=O)(=O)N1CCC(Nc2ncc3cc(-c4ccccc4C)c(=O)n(C)c3n2)CC1.Cl [Cpd 126] | 0.3 nM |
| Cc1ccccc1-c1cc2cnc(NC3CCN(S(=O)(=O)CC(F)(F)F)CC3)nc2n(C)c1=O.Cl [Cpd 128] | 0.6 nM |
| CCn1c(=O)c(-c2ccccc2Cl)cc2cnc(NC3CCOCC3)nc21.Cl [Cpd 136] | 8.2 nM |
| Cn1c(=O)c(-c2ccccc2Cl)cc2cnc(N[C@H]3CC[C@H](N)CC3)nc21 [Example 38] | 6.2 nM |
| O=c1c(-c2ccccc2Cl)cc2cnc(N[C@H]3CC[C@H](O)CC3)nc2n1Cc1ccccc1 [Example 41] | 5.1 nM |
| Cl.N#CCn1c(=O)c(-c2ccccc2Cl)cc2cnc(N[C@H]3CC[C@H](O)CC3)nc21 [Example 44] | 7.8 nM |
| Cn1c(=O)c(-c2ccccc2Cl)cc2cnc(NC3CCN(C(N)=O)CC3)nc21 [compound 11] | 4.8 nM |
| Cn1c(=O)c(-c2ccccc2Cl)cc2cnc(NC3CCN(CC#N)CC3)nc21 [compound 24] | 35.5 nM |
| Cn1c(=O)c(-c2ccccc2Cl)cc2cnc(NC3CCC4(CC3)NC(=O)NC4=O)nc21 (centres unmarked) [compound 29] | 41.5 nM |
| Cn1c(=O)c(-c2ccccc2Cl)cc2cnc(N[C@H]3CC[C@H](NS(C)(=O)=O)CC3)nc21 [compound 37] | 30.5 nM |

Test system: not given
Experiment: not given
Details: not given

| SMILES | melting point |
| --- | --- |
| Cl.Cn1c(=O)c(-c2ccccc2Cl)cc2cnc(NC3(CO)CCCCC3)nc21 | 185 to 188.6 °C |
| Cl.O=c1c(-c2ccccc2Cl)cc2cnc(N[C@H]3CC[C@H](O)CC3)nc2n1C1CC1 | 241.7 to 242.3 °C |
| Cn1c(=O)c(-c2ccccc2Cl)cc2cnc(N[C@H]3CC[C@H](N)CC3)nc21 (as salt: HCl) [Example 38] | 163.4 to 171.1 °C |
| O=c1c(-c2ccccc2Cl)cc2cnc(N[C@H]3CC[C@H](O)CC3)nc2n1Cc1ccccc1 (as salt: HCl) [Example 41] | 202 to 206 °C |
| O=C1c2ccccc2C(=O)N1CCn1c(=O)c(-c2ccccc2Cl)cc2cnc(N[C@H]3CC[C@H](O)CC3)nc21 (as salt: HCl) [Example 77] | 208 to 210 °C |
| Cn1c(=O)c(-c2ccccc2Cl)cc2cnc(NC3CCSCC3)nc21 (as salt: HCl) [Example 78, 2-(4-tetrahydrothiopyranylamino)-6-(2-chlorophenyl)-8-methyl-8H-pyrido[2,3-d]pyrimidin-7-one] | 232.1 to 233.1 °C |
| CS(=O)(=O)N1CCC(Nc2ncc3cc(-c4ccccc4Cl)c(=O)n(-c4ccc(F)cc4)c3n2)CC1 (as salt: HCl) [Example 96] | 165 to 169 °C |
| CS(=O)(=O)N[C@H]1CC[C@H](Nc2ncc3c(n2)=NC(=O)C(c2ccccc2Cl)C=3)CC1 (stereo partly drawn) (as salt: hydrochloric acid salt) [Example 16, 2-(trans-4-methanesulfonylaminocyclohexylamino)-6-(2-chlorophenyl)-pyrido[2,3-d]pyrimidin-7-one] | > 300 °C |
| O=c1[nH]c2nc(N[C@H]3CC[C@H](O)CC3)ncc2cc1-c1ccccc1Cl (as salt: hydrochloride) [Example 11, 2-(trans-4-hydroxycyclohexylamino)-6-(2-chlorophenyl)-pyrido[2,3-d]pyrimidin-7-ol] | 191.1 to 194.3 °C |
| Cn1c(=O)c(-c2ccccc2Cl)cc2cnc(N[C@H]3CC[C@H](N)CC3)nc21 (as salt: hydrochloride) [Example 13, 2-(trans-4-aminocyclohexylamino)-6-(2-chlorophenyl)-8-methyl-pyrido[2,3-d]pyrimidin-7-one] | 190.3 to 191.4 °C |
| Cn1c(=O)c(-c2ccccc2Cl)cc2cnc(N[C@H]3CC[C@H](NS(C)(=O)=O)CC3)nc21 (as salt: hydrochloride) [Example 14, 2-(trans-4-methanesulfonylaminocyclohexylamino)-6-(2-chlorophenyl)-8-methyl-pyrido[2,3-d]pyrimidin-7-one] | 260.9 to 261.1 °C |
| O=C1CCC(Nc2ncc3cc(-c4ccccc4Cl)c(=O)n(CC(F)(F)F)c3n2)CC1 (as salt: hydrochloride) [Example 59] | 251.2 to 252 °C |
| CS(=O)(=O)N1CCC(Nc2ncc3cc(-c4ccccc4Cl)c(=O)n(C4CC4)c3n2)CC1 (as salt: hydrochloride) [Example 88] | 128 to 141.5 °C |
| CCS(=O)(=O)CCC(C)Nc1ncc2cc(-c3ccccc3Cl)c(=O)n(C)c2n1 (centres unmarked) (as salt: hydrochloride) [Example 102] | 160.1 to 167 °C |
| Cn1c(=O)c(-c2ccccc2Cl)cc2cnc(N[C@H]3CC[C@H](O)CC3)nc21 (as salt: salt) [Cpd 1] | 163.4 to 171.1 °C |
| Cn1c(=O)c(-c2ccccc2Cl)cc2cnc(NC3(CO)CCCC3)nc21 (as salt: salt) [Cpd 2] | 213.7 to 214.6 °C |
| N[C@H]1CC[C@H](Nc2ncc3cc(-c4ccccc4Cl)c(=O)[nH]c3n2)CC1 (as salt: salt) [Cpd 17] | > 300 °C |
| Cn1c(=O)c(-c2ccccc2Cl)cc2cnc(NC3CCC(OC=O)CC3)nc21 (centres unmarked) [Cpd 4] | 196.1 to 196.6 °C |
| CC(=O)OC1CCC(Nc2ncc3cc(-c4ccccc4Cl)c(=O)n(C)c3n2)CC1 (centres unmarked) [Cpd 5] | 200.9 to 201.2 °C |
| Cn1c(=O)c(-c2ccccc2Cl)cc2cnc(NC3CCC4(CC3)OCCCO4)nc21 [Cpd 8] | 196.1 to 196.5 °C |
| O=CO[C@H]1CC[C@H](Nc2ncc3cc(-c4ccccc4Cl)c(=O)[nH]c3n2)CC1 [Cpd 19] | > 300 °C |
| CC(C)(O)Cn1c(=O)c(-c2ccccc2Cl)cc2cnc(NC3CCOCC3)nc21 [Cpd 117] | 189 to 191.5 °C |
| CCCS(=O)(=O)N1CCC(Nc2ncc3cc(-c4ccccc4C)c(=O)n(C)c3n2)CC1.Cl [Cpd 126] | 211.7 to 212.6 °C |
| Cc1ccccc1-c1cc2cnc(NC3CCN(S(=O)(=O)CC(F)(F)F)CC3)nc2n(C)c1=O.Cl [Cpd 128] | 200 to 204 °C |
| CCn1c(=O)c(-c2ccccc2Cl)cc2cnc(NC3CCOCC3)nc21.Cl [Cpd 136] | 185.3 to 190.1 °C |
| Cc1ccccc1-c1cc2cnc(NC3CCSCC3)nc2n(C)c1=O [Cpd 140] | 186.6 to 188.1 °C |
| Cl.N#CCn1c(=O)c(-c2ccccc2Cl)cc2cnc(N[C@H]3CC[C@H](O)CC3)nc21 [Example 44] | 232.1 to 233.4 °C |
| O=c1c(-c2ccccc2Cl)cc2cnc(N[C@H]3CC[C@H](O)CC3)nc2n1CC(F)(F)F [Example 55] | 227.2 to 230.4 °C |
| CN1CCN(Nc2ncc3cc(-c4ccccc4Cl)c(=O)n(C)c3n2)CC1 [Example 85] | 125.7 to 128.1 °C |
